Where two headings read alike, the source gives them in different places.
Assays:
[1] = tested on: GM18455 (NPC2) cells; assay: LSO filipin assay of cholesterol accumulation, NPC2 mutant fibroblasts; type: cell-based, human
Experimental: (§1) FIGS. 5 A-D. Charts showing quantification of CD effects on cholesterol accumulation in NPC1 and NPC2 mutant cells. The filipin fluorescence in LSOs was measured in NPC1 (A and B) and NPC2 (C and D) mutant cells treated with either MβCD (A and C) or HPβCD (B and D) for 1-4 days.
(§2) FIG. 6. Chart comparing cholesterol accumulation as measured by the LSO assay in NPC1-defective, NPC2-defective, and apparently normal human fibroblasts. […] At the end of the experiment, cells were fixed with 1% PFA and stained with 50 μg/mL filipin. Images were acquired using an ImageXpress MICRO imaging system with a 10× objective. Quantification of filipin labeling of the LSOs was performed as described previously (Pipalia N H, Huang A, Ralph H, Rujoi M, Maxfield FR (2006) Automated microscopy screening for compounds that partially revert cholesterol accumulation in Niemann-Pick C cells. J. Lipid Res. 47:284-301).

[2] = tested on: GM03123 (NPC1) cells; assay: LSO filipin assay of cholesterol accumulation, NPC1 mutant fibroblasts; type: cell-based, human
Experimental: as §1, §2

[3] = tested on: NPC1 and NPC2 mutant cells; assay: LSO filipin staining after cyclodextrin treatment, withdrawal and acute treatment; type: cell-based, human; details: for cholesterol accumulation detected by filipin labeling: 300 μM CD for 1 day (FIG. 4); for LSO values one more day after CD removal versus fixed immediately / LSO cholesterol accumulation after three days without extracellular CD: 1 day treatment; for LSO values one more day after CD removal versus fixed immediately: then 1 day in growth medium without CD; for LSO cholesterol accumulation after three days without extracellular CD: then three days in serum containing medium; for level to which LSO cholesterol accumulation is reduced: low micromolar concentrations, 1-4 days (FIG. 5)
Experimental: FIG. 4. Micrographs showing the effect of CDs on cholesterol accumulation in NPC1- and NPC2-deficient cells. (A) Background and shading corrected images of untreated (a and b), MβCD-treated (c and d), or HPβCD-treated (e and f) GM03123 NPC1 cells (a, c, and e) or GM18455 NPC2 (b, d, and f) mutant cells. NPC mutant cells were treated with 300 μMCD for 1 day. (B) Untreated, apparently normal GM05659 cells, shown for comparison. (Scale bars, 100 μm.)
FIGS. 8 A-D. Charts showing persistence of CD effects after treatment. NPC1 (A and B) and NPC2 (C and D) treated with various concentrations of MβCD (A and C) and HPβCD (B and D) for 1 day and then fixed (0 days after 24 h treatment), or rinsed extensively, and allowed to grow in normal growth medium for up to three additional days after CD removal. Quantification of LSO filipin fluorescence power is shown.
FIG. 9 A, B. Filipin micrographs showing acute cyclodextrin effects on cholesterol accumulation in NPC1- and NPC2-deficient cells. Background and shading corrected images of untreated control (panels a-c), 0 h after treatment (panels d-f), or 24 h after treatment (panels g-i) for NPC1 (A) or NPC2 (B) mutant cells were obtained as in FIG. 6. […] (Scale bars, 100 μm.)
FIGS. 10 A-D. Short-term MβCD treatment. […] Cells were either fixed immediately or rinsed extensively and returned to growth medium for 24 hours. Quantification of LSO filipin fluorescence power is shown (A and C). Numeric data represent averages±SEM of three independent experiments normalized to control (untreated) average value for each experiment. *P<0.0001 vs. control (n=12, where n is total number of wells used for quantification). Filipin images of NPC1 (B) or NPC2 (D) mutant cells treated with MβCD/cholesterol are shown. (Scale bars, 100 μm.)
To determine whether the CD-mediated decrease in cholesterol accumulation would be sustained after the compound has been removed from the culture medium, NPC1 and NPC2 mutant cells were treated for 1 day with varying concentrations of MβCD or HPβCD (FIG. 8). The cells were then washed extensively to remove the compounds and returned to growth medium for up to three days.
To determine whether the reduction of free cholesterol in LSOs of NPC-defective cells resulted from extraction of cholesterol by CD from the PM or from inside the LSOs, this experiment acutely treated cells for one hour with MβCD in medium without serum (to extract cholesterol from the PM), MβCD in medium plus 10% FBS (to exchange cholesterol between serum lipoproteins and the PM (V. M. Atger, et al. (1997), J. Clin. Invest., 99:773-780)), or MβCD loaded with cholesterol (≈5:1 (MβCD/cholesterol) ratio) to overload cells with cholesterol.

[4] = tested on: human NPC1 cells; assay: Removal of cholesterol from LSOs by filipin staining and digital image analysis
Experimental: Graph showing the concentration and time dependence of the removal of cholesterol from LSOs of human NPC1 cells incubated with the indicated concentrations of MβCD in complete medium for 1-4 days.
Graph showing concentration of cholesterol from LSOs of NPC1 cells incubated with 0.33 mM MβCD for one hour under various conditions (i.e., no FBS, 10% FBS, and cholesterol-loaded MβCD (i.e., “MbCD/cholest.”), and these with either no chase or a 24 hour chase). At the end of the incubation, cells were rinsed thoroughly, and returned to complete medium for 24 hours.
Graph comparing the cholesterol-lowering ability of MβCD and a MβCD-dextran composition of the instant invention. Human NPC1 cells were incubated with MβCD (●) or Dextran-PEG-MbCD (O) for 39 hours. The polymers had about two MβCDs per polymer, and the concentration is the MβCD concentration.
(A) Cells were treated for 2 days with 50 μM MβCD or 50 μM MβCD conjugated to dextran fixed with paraformaldehyde, stained, and imaged. Cholesterol accumulation in LSOs was measured by quantifying filipin fluorescence. Data represent averages±SEM of one representative experiment (n=8, where n is total number of wells per condition used for quantification).
In this experiment, studies were conducted to determine the effects of MβCD on NPC1 and NPC2 cells. […] The cells were then rinsed and incubated in complete medium for 24 hours. […] To further emphasize this, the one-hour loading pulse was conducted with cholesterol-loaded MβCD, which would actually increase the cellular cholesterol during the loading period.

[5] = tested on: NPC mutant cells; assay: BMP accumulation by anti-BMP immunofluorescence; type: cell-based, human; details: 0.9 mM CD for ≈1 day (FIG. 15)
Experimental: FIGS. 15 A-C. CD effects on BMP accumulation in NPC mutant cells. BMP levels were quantified using fluorescence microscopy from images obtained with a 20× objective of cells stained with anti-BMP antibody and AlexaFluor488-conjugated secondary antibody in NPC1 (A), NPC2 (B) mutant, and 1 μM U18666A-treated normal (C) cells. Cells were incubated with 0.9 mM CD for ≈1 day.

[6] = tested on: U18666A-treated GM05659 cells
Experimental: (§3) Cells were plated in 384-well assay plates at a density to produce ≈80-90% confluency by experiment completion and treated with U18666A at indicated concentrations for 24 hour before addition of various concentrations of either MβCD or HPβCD for another 24 hours, during which indicated U18666A levels were maintained. At the end of the experiment, cells were fixed with 1% PFA and stained with 50 μg/mL filipin. Images were acquired using an ImageXpressMICRO imaging system with a 10× objective. […] (A) Cholesterol accumulation, as measured by the LSO filipin assay, at different concentrations of U18666A. MβCD (B) and HPβCD (C) LSO filipin dose-response curves at three different U18666A concentrations. […] Data represent averages±SEM of two independent experiments (n=12 for control and n=6 for treated, where n is total number of wells per condition used for quantification).

[7] = tested on: U18666A-treated GM05659 cells; assay: LSO filipin assay in U18666A-treated apparently normal fibroblasts; details: read-out: EC50 (μM), 50% reduction in LSO filipin, cyclodextrin 1 day
Experimental: as §3

[8] = tested on: NPC1- or NPC2-deficient cell lines; assay: Cholesterol esterification by ACAT (BODIPY-C12); type: cell-based, human; details: S58-035 at 10 μg/mL
Experimental: FIG. 12 A, B. Charts showing cholesterol esterification by ACAT. Cyclodextrin effects on cholesterol esterification in NPC1 (A) and NPC2 (B) mutant cells. Cells were treated for 1 hour with 3 mM MβCD or HPβCD and then allowed to recover in growth medium for 16 hours. Cells were then incubated with 3 μM 4,4-difluoro-4-bora-3a,4a-diaza-s-indacene-dodecanoic acid (BODIPY-C12) for 6 hours. The ratio of cholesteryl-BODIPY-C12 ester (CE)/BODIPY-C12 acid (FA) after TLC separation was measured and normalized to the average control value. ACAT inhibitor S58-035 was added, where indicated, at 10 μg/mL. For NPC1-defective cells, the average ratio was 0.110±0.007, which corresponded to 3.73±0.22 fmol CE formed per μg cell protein during 6 hours. Corresponding values for NPC2-defective cells were 0.089±0.003 and 2.50±0.24 fmol/μg.
To measure cholesterol levels within the endoplasmic reticulum in response to brief CD treatments, cholesterol esterification was measured by ACAT (FIG. 12). Increased esterification of cholesterol was observed several hours after a short (1-hour) CD treatment of NPC1- or NPC2-deficient cell lines. […] Corresponding reductions in cholesterol accumulation upon MβCD treatment, as measured by the LSO filipin assay, are shown in FIG. 13.

[9] = tested on: npc1−/− mice; details: cited from earlier work
[10] = tested on: NPC1- or NPC2-deficient cell lines; details: literature study, cultured NPC1- and NPC2-deficient cells; cited from earlier work
[11] = tested on: NPC1 fibroblast GM03123; assay: HDAC inhibitor dose and time dependence on LSO cholesterol; type: cell-based, human
Description: FIG. 19. Plots showing the dose and time dependence for each of the studied HDACi compounds as a function of time on NPC1 fibroblast GM03123.
Dose and time dependence for each of the studied HDACi compounds as a function of time on NPC1 fibroblast GM03123 are shown in the plots of FIG. 19. Each data point in the plot is representative of a total of 32 images from two independent experiments. The SD for DMSO is 0.07, error bar=SE. The dotted line represents the DMSO control.

[12] = tested on: NPC1 human fibroblast GM18453; NPC2 human fibroblast GM18445; assay: HDAC inhibitor effect on LSO cholesterol, 48-hour treatment; type: cell-based; details: 37 nM
Experimental: Cells were treated in complete medium for two days (48 hours). The dashed horizontal line is 3SD below the mean for untreated cells. (A) results for NPC1 human fibroblast GM18453, (B) results for NPC2 human fibroblast GM18445.
Each data point in the plot is representative of a total of 32 images from two independent experiments. The standard deviation (SD) for DMSO is 0.07, error bar=SE. The dotted line represents the DMSO control.

[13] = read-out: EC50 (μM), 50% reduction in LSO filipin, 1 day of treatment
[14] = read-out: EC50 (μM), 50% reduction in LSO filipin, 2 days of treatment
[15] = read-out: EC50 (μM), 50% reduction in LSO filipin, 3 days of treatment
[16] = read-out: EC50 (μM), 50% reduction in LSO filipin, 4 days of treatment

Compound	EC50 [1, 13] [µM]	EC50 [1, 14] [µM]	EC50 [1, 15] [µM]	EC50 [1, 16] [µM]	EC50 [2, 13] [µM]	EC50 [2, 14] [µM]	EC50 [2, 15] [µM]	EC50 [2, 16] [µM]	cholesterol accumulation detected by filipin labeling [3]	LSO values one more day after CD removal versus fixed immediately [3]	LSO cholesterol accumulation after three days without extracellular CD [3]	level to which LSO cholesterol accumulation is reduced [3]	BMP accumulation [5]	EC50 [6] [µM]	EC50 ([7]; U18666A 1,000 nM) [µM]	EC50 ([7]; U18666A […]) [µM]	also measured
methyl β-cyclodextrin [MβCD]	40.4	3.19	2.8	1.69	2.22	1.1	0.98	1.08	reduced cholesterol accumulation	further decrease in LSO values	significant reduction	near-normal levels	significantly reduced BMP accumulation	6.2	48.1	18.9	concentration giving effects equivalent to those of HPβCD ([3]; relative to HPβCD): approximately three-fold lower concentrations; cholesterol in LSOs after 24 hr chase ([4]; 1 hour pulse, 0.33 mM, then 24 hours in complete medium): significant reduction; time for the effect to reach steady state ([4]; FIG. 1): about 2 days; EC50 ([4]; read-out: concentration giving half-maximal effect on removal of cholesterol from LSOs, complete medium, 1-4 days (FIG. 1)): 2 to 3 µM
CCCCCCCCCC[Si](C)(C)CCC(=O)NC(Cc1ccc(C)cc1)c1ccccc1 (centres unmarked) [S58-035]	–	–	–	–	–	–	–	–	–	–	–	–	–	–	–	–	effect on CD-induced increase in cholesterol esterification [8]: inhibited
MβCD-NH-(PEG)3-CONH-aminodextran [MβCD-dextran]	–	–	–	–	–	–	–	–	–	–	–	–	–	–	–	–	reversal of cholesterol accumulation in LSOs (filipin) ([4]; 50 μM MβCD conjugated to dextran, 2 days (FIG. 11A)): can also reverse cholesterol accumulation; cholesterol-lowering in LSOs ([4]; 39 hours, about two MβCDs per polymer (FIG. 3)): significant effect
hydroxypropyl-βCD [HPβCD]	272	20.8	16.9	11.5	3.16	3.77	4.18	5.44	reduced cholesterol accumulation	further decrease in LSO values	significant reduction	near-normal levels	significantly reduced BMP accumulation	17.4	185	69.9	glycosphingolipid storage ([9]; repeated injections): clearance of various glycosphingolipids; lifespan ([9]; repeated injections): further prolongation of lifespan; lifespan ([9]; single injections): can extend their lifespan; ACAT-mediated esterification of cholesterol [10]: increased ACAT-mediated esterification of cholesterol; times higher concentrations required to achieve the same effect as MβCD ([4]; relative to MβCD): 3-5 times
O=C(CCCCCCC(=O)Nc1ccccc1)NO [SAHA, suberoylanilide hydroxamic acid]	–	–	–	–	–	–	–	–	–	–	–	–	–	–	–	–	reduction of cholesterol in the LSOs [11]: somewhat effective; reduction of cholesterol in the LSOs ([11]; 10 μM, other experiments (not shown)): much more effective
CC(/C=C/C(=O)NO)=C\[C@@H](C)C(=O)c1ccc(N(C)C)cc1 [trichostatin A]	–	–	–	–	–	–	–	–	–	–	–	–	–	–	–	–	reduction of cholesterol in the LSOs [12]: significantly effective

Source: patent publication US10124019B2, “Compositions and their use for removing cholesterol” (Cornell University, priority 2009, dated 2018)
